# According to ChEMBL document CHEMBL5360573, “Discovery of novel tryptamine derivatives as GluN2B subunit-containing NMDA receptor antagonists via pharmacophore-merging strategy with orally available therapeutic effect of cerebral ischemia” (Eur J Med Chem, 2023):
# Active and inactive are the calls of the source. No cut-off for these calls is given here.
# Key:
# SH-SY5Y [1] = assay: Neuroprotective activity against NMDA-induced cell injury in human SH-SY5Y cells assessed as cell viability at 0.5 uM incubated for 6 hrs followed by NMDA treatment for 0.5 hrs and subsequent replacement of fresh medium without compounds by MTT assay relative to control; type: functional; conditions: time 6.5 hrs, read-out: Activity
# SH-SY5Y [2] = assay: Neuroprotective activity against NMDA-induced cell injury in human SH-SY5Y cells assessed as cell viability at 5 uM incubated for 6 hrs followed by NMDA treatment for 0.5 hrs and subsequent replacement of fresh medium without compounds by MTT assay relative to control; type: functional; conditions: time 6.5 hrs, read-out: Activity
# SH-SY5Y [3] = assay: Neuroprotective activity against NMDA-induced cell injury in human SH-SY5Y cells assessed as cell viability at 0.05 uM incubated for 6 hrs followed by NMDA treatment for 0.5 hrs and subsequent replacement of fresh medium without compounds by MTT assay relative to control; type: functional; conditions: time 6.5 hrs, read-out: Activity
# [4] = target: Glutamate receptor ionotropic, NMDA 2B (Homo sapiens) (UniProt Q13224); assay: Antagonist activity against GluN2B NMDAR in human SH-SY5Y cells assessed as increase in NMDA-induced downregulation of phosphorylated ERK1/2 at 0.05 to 5 uM incubated for 6 hrs followed by NMDA treatment for 0.5 hrs and subsequent replacement of fresh medium without compounds by Western blot analysis; type: cell-based; conditions: filed as antagonist, dose 0.05-5 µM, time 6.5 hrs
# [5] = Oral bioavailability in C57 mouse at 10 mg/kg measured for 20 mins by LC-MS/MS analysis; type: ADME, organism-based; conditions: in vivo
# [6] = MRT (0 to infinity) in C57 mouse at 10 mg/kg, po measured for 20 mins by LC-MS/MS analysis; type: ADME, organism-based; conditions: in vivo
# Mus musculus [7] = assay: Neuroprotective activity against ICV-ET1-induced cerebral ischemia injury C57BL/6J mouse model assessed as improvement of spontaneous alternation behavior administered orally daily for 10 days by Y-maze test; type: functional, organism-based; conditions: dose 20-80 mg/kg, route po, time 10.0 day
# Mus musculus [8] = assay: Neuroprotective activity against ICV-ET1-induced cerebral ischemia injury C57BL/6J mouse model assessed as improvement in escape latency at 20 to 80 mg/kg, po administered daily measured on day 14 to 19 by Morris water maze test; type: functional, organism-based; conditions: dose 20-80 mg/kg, time 14-19 day
# [9] = AUC (0 to infinity) in C57 mouse at 1 mg/kg, iv measured for 20 mins by LC-MS/MS analysis; type: ADME, organism-based; design: dose 1 mg/kg, time 20 min, route iv; conditions: in vivo
# [10] = Metabolic stability in human plasma assessed as compound remaining at 2 uM measured immediately by LC-MS/MS analysis; type: ADME, cell-free; conditions: read-out: Stability
# [11] = Cmax in C57 mouse at 10 mg/kg, po measured for 20 mins by LC-MS/MS analysis; type: ADME, organism-based; design: dose 10 mg/kg, time 20 min, route po; conditions: in vivo
# [12] = Metabolic stability in human plasma assessed as compound remaining at 2 uM measured after 30 mins by LC-MS/MS analysis; type: ADME, cell-free; conditions: read-out: Stability
# [13] = Cmax in C57 mouse at 1 mg/kg, iv measured for 20 mins by LC-MS/MS analysis; type: ADME, organism-based; design: dose 1 mg/kg, time 20 min, route iv; conditions: in vivo
# [14] = AUC (0 to infinity) in C57 mouse at 10 mg/kg, po measured for 20 mins by LC-MS/MS analysis; type: ADME, organism-based; design: dose 10 mg/kg, time 20 min, route po; conditions: in vivo
# [15] = Metabolic stability in human plasma assessed as compound remaining at 2 uM measured after 60 mins by LC-MS/MS analysis; type: ADME, cell-free; conditions: read-out: Stability
# [16] = Tmax in C57 mouse at 10 mg/kg, po measured for 20 mins by LC-MS/MS analysis; type: ADME, organism-based; conditions: in vivo
# [17] = Metabolic stability in human plasma assessed as compound remaining at 2 uM measured after 10 mins by LC-MS/MS analysis; type: ADME, cell-free; conditions: read-out: Stability
# [18] = Clearance in C57 mouse at 1 mg/kg, iv measured for 20 mins by LC-MS/MS analysis; type: ADME, organism-based; conditions: in vivo
# [19] = MRT (0 to infinity) in C57 mouse at 1 mg/kg, iv measured for 20 mins by LC-MS/MS analysis; type: ADME, organism-based; conditions: in vivo
# [20] = AUC (0 to t) in C57 mouse at 1 mg/kg, iv measured for 20 mins by LC-MS/MS analysis; type: ADME, organism-based; design: time 20 min, dose 1 mg/kg, route iv; conditions: in vivo
# [21] = MRT (0 to t) in C57 mouse at 1 mg/kg, iv measured for 20 mins by LC-MS/MS analysis; type: ADME, organism-based; conditions: in vivo
# [22] = Metabolic stability in human plasma assessed as half life at 2 uM by LC-MS/MS analysis; type: ADME, cell-free
# Mus musculus [23] = assay: Neuroprotective activity against ICV-ET1-induced cerebral ischemia injury C57BL/6J mouse model assessed as improvement in swimming distance at 20 to 80 mg/kg, po administered daily measured on day 14 to 19 by Morris water maze test; type: functional, organism-based; conditions: dose 20-80 mg/kg, time 14-19 day
# [24] = target: Glutamate receptor ionotropic, NMDA 2B (Homo sapiens) (UniProt Q13224); assay: Antagonist activity against GluN2B NMDAR in human SH-SY5Y cells assessed as reduction in NMDA-induced intracellular influx at 5 uM incubated for 6 hrs followed by replacement of fresh medium without compounds and subsequent NMDA treatment by Fluo-4AM dye based calcium mobilization assay; type: cell-based; conditions: filed as antagonist
# [25] = AUC (0 to t) in C57 mouse at 10 mg/kg, po measured for 20 mins by LC-MS/MS analysis; type: ADME, organism-based; design: time 20 min, dose 10 mg/kg, route po; conditions: in vivo
# [26] = Half life in C57 mouse at 1 mg/kg, iv measured for 20 mins by LC-MS/MS analysis; type: ADME, organism-based; conditions: in vivo
# [27] = Tmax in C57 mouse at 1 mg/kg, iv measured for 20 mins by LC-MS/MS analysis; type: ADME, organism-based; conditions: in vivo
# [28] = MRT (0 to t) in C57 mouse at 10 mg/kg, po measured for 20 mins by LC-MS/MS analysis; type: ADME, organism-based; conditions: in vivo
# [29] = Metabolic stability in human plasma assessed as compound remaining at 2 uM measured after 120 mins by LC-MS/MS analysis; type: ADME, cell-free; conditions: read-out: Stability
# [30] = Half life in C57 mouse at 10 mg/kg, po measured for 20 mins by LC-MS/MS analysis; type: ADME, organism-based; conditions: in vivo
# Mus musculus [31] = assay: Neuroprotective activity against ICV-ET1-induced cerebral ischemia injury C57BL/6J mouse model assessed as increase in preferential index at 20 to 80 mg/kg, po administered daily measured on day 11 to 13 by novel object recognition test; type: functional, organism-based; conditions: dose 20-80 mg/kg, time 11-13 day
# Chain of Glutamate receptor ionotropic, NMDA 2B (Homo sapiens) (Q13224 27-1484 limits assumed): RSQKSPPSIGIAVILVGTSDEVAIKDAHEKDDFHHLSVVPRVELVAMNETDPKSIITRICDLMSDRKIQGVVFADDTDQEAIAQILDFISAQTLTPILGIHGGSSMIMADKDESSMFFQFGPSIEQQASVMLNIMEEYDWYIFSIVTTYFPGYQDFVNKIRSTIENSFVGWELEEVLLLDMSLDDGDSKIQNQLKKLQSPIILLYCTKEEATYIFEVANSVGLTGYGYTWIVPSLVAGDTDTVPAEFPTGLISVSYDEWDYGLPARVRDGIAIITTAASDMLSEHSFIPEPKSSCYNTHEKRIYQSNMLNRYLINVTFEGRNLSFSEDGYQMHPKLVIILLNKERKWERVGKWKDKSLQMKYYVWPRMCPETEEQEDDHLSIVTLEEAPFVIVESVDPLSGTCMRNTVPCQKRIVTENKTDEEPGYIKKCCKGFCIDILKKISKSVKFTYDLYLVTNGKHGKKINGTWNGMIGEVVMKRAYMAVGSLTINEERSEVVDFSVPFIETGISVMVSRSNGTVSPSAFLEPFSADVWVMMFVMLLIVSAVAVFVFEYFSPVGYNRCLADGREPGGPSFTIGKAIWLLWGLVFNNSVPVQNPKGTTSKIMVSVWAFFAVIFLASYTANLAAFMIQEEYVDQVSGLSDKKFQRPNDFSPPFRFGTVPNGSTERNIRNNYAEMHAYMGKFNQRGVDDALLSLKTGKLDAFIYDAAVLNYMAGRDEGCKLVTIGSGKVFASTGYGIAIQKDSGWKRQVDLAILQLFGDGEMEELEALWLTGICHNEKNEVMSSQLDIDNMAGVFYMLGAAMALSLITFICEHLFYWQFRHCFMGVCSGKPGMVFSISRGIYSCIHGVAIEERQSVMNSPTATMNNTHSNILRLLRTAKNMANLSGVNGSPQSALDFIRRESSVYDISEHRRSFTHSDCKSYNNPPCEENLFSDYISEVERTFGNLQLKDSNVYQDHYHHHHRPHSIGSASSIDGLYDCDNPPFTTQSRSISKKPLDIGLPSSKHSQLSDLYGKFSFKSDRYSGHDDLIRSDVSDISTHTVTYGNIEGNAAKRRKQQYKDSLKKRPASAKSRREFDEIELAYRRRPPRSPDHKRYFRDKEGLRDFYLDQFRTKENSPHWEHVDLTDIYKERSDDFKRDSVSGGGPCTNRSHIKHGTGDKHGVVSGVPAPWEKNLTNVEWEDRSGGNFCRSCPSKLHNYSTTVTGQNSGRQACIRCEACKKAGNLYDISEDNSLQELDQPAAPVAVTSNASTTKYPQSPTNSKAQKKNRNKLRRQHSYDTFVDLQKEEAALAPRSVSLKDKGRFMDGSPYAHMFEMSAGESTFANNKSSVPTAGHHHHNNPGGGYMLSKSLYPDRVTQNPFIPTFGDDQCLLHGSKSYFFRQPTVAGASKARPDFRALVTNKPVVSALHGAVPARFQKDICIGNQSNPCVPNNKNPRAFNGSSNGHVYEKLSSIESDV
smiles,measurement,setting,value
O=C(/C=C/c1ccc(O)cc1)NCCc1cn(CC2CC2)c2ccccc12,viability at 0.5 µM,SH-SY5Y [1],18.6%
same,viability at 5 µM,SH-SY5Y [2],9.7%
same,viability at 0.05 µM,SH-SY5Y [3],19.9%
O=C(/C=C/c1ccccc1)NCCc1cn(Cc2ccccc2)c2ccccc12,viability at 0.5 µM,SH-SY5Y [1],8.4%
same,viability at 5 µM,SH-SY5Y [2],24.7%
same,viability at 0.05 µM,SH-SY5Y [3],30.4%
CCCCn1cc(CCNC(=O)/C=C/c2ccc(O)cc2)c2ccccc21,viability at 0.5 µM,SH-SY5Y [1],24.1%
same,viability at 5 µM,SH-SY5Y [2],19.3%
same,viability at 0.05 µM,SH-SY5Y [3],24.3%
O=C(/C=C/c1ccc(O)cc1)NCCc1cn(Cc2ccc(F)cc2)c2ccccc12,viability at 0.5 µM,SH-SY5Y [1],49.8%
same,viability at 5 µM,SH-SY5Y [2],20.8%
same,viability at 0.05 µM,SH-SY5Y [3],35.8%
O=C(CCc1ccc(O)cc1)NCCc1cn(Cc2ccccc2)c2ccccc12,viability at 0.5 µM,SH-SY5Y [1],50.9%
same,viability at 5 µM,SH-SY5Y [2],52.1%
same,viability at 0.05 µM,SH-SY5Y [3],45.3%
O=C(/C=C/c1ccc(O)cc1)NCCc1cn(Cc2cccc(Br)c2)c2ccccc12,Activity,[4],Active
same,bioavailability,[5],3.12%
same,viability at 0.5 µM,SH-SY5Y [1],48.8%
same,MRT inf,[6],85.2 min
same,Activity,Mus musculus [7],Dose-Dependent Effect
same,Activity,Mus musculus [8],Active
same,AUC(0-inf),[9],863 ng·h/mL
same,"remaining at 0 min, 2 µM",[10],100%
same,Cmax,[11],182 ng/mL
same,"remaining at 0.5 h, 2 µM",[12],98.8%
same,Cmax,[13],1910 ng/mL
same,AUC(0-inf),[14],269 ng·h/mL
same,"remaining at 1 h, 2 µM",[15],100%
same,Tmax,[16],30 min
same,"remaining at 10 min, 2 µM",[17],97.5%
same,viability at 5 µM,SH-SY5Y [2],55.8%
same,clearance,[18],20.4 mL/min/kg
same,MRT inf,[19],27 min
same,AUC(0-t) at 20 min,[20],860 ng·h/mL
same,MRT last at 20 min,[21],26.4 min
same,half-life at 2 µM,[22],> 289 min
same,Activity,Mus musculus [23],Active
same,Activity,[24],Active
same,AUC(0-t) at 20 min,[25],261 ng·h/mL
same,half-life,[26],40.2 min
same,Tmax,[27],4.98 min
same,MRT last at 20 min,[28],74.4 min
same,viability at 0.05 µM,SH-SY5Y [3],35.7%
same,"remaining at 2 h, 2 µM",[29],100%
same,half-life,[30],66.6 min
same,Activity,Mus musculus [31],Active
O=C(/C=C/c1ccc(O)cc1)NCCc1cn(Cc2ccccc2)c2ccccc12,viability at 0.5 µM,SH-SY5Y [1],42.8%
same,viability at 5 µM,SH-SY5Y [2],52.8%
same,viability at 0.05 µM,SH-SY5Y [3],33%
O=C(/C=C/c1ccc(O)c(O)c1)NCCc1cn(Cc2ccccc2)c2ccccc12,viability at 0.5 µM,SH-SY5Y [1],47.1%
same,viability at 5 µM,SH-SY5Y [2],48.2%
same,viability at 0.05 µM,SH-SY5Y [3],34.8%
O=C(/C=C/c1ccc(O)cc1)NCCc1cn(Cc2ccccc2Br)c2ccccc12,viability at 0.5 µM,SH-SY5Y [1],32.3%
same,viability at 5 µM,SH-SY5Y [2],36.7%
same,viability at 0.05 µM,SH-SY5Y [3],45.1%
Cc1ccc(Cn2cc(CCNC(=O)/C=C/c3ccc(O)cc3)c3ccccc32)cc1,viability at 0.5 µM,SH-SY5Y [1],28.4%
same,viability at 5 µM,SH-SY5Y [2],21%
same,viability at 0.05 µM,SH-SY5Y [3],19.4%
CCCn1cc(CCNC(=O)/C=C/c2ccc(O)cc2)c2ccccc21,viability at 0.5 µM,SH-SY5Y [1],13.5%
same,viability at 5 µM,SH-SY5Y [2],25.1%
same,viability at 0.05 µM,SH-SY5Y [3],17.6%
O=C(/C=C/c1ccc(O)cc1)NCCc1cn(Cc2cccc(F)c2)c2ccccc12,viability at 0.5 µM,SH-SY5Y [1],21.8%
same,viability at 5 µM,SH-SY5Y [2],18.8%
same,viability at 0.05 µM,SH-SY5Y [3],28.6%
O=C(NCCc1cn(Cc2ccccc2)c2ccccc12)c1ccc(O)cc1,viability at 0.5 µM,SH-SY5Y [1],54.3%
same,viability at 5 µM,SH-SY5Y [2],51.4%
same,viability at 0.05 µM,SH-SY5Y [3],31.7%
